Results published in patent US8278290B2, “Tubulin polymerisation inhibitors” (Biononics Limited, priority 2005, dated 2012).

How the values were obtained:
MDA-MB-231 tumour = MDA-MB-231 tumour growth in mice; assay type: in vivo; settings: 35 mg/kg/d (35 mg/kg/d for 3 days then 17.5 mg/kg/d for 3 days then none); 5 mice per group; FIG. 1
Procedure: The effect of 35 mg/kg/d CA4-P, compound entry 8, compound entry 9, compound entry 10 and compound entry 23 (administered at 35 mg/kg/d for 3 days then 17.5 mg/kg/d for 3 days then none) on MDA-MB-231 tumour growth is summarised in FIG. 1.
The effect of CA4-P and test compounds and saline on MDA-MB-231 tumour growth. Each group consisted of 5 mice. The data represent the mean tumour volume; bars SEM.

MCF-7, cancer cell line = assay: MCF-7 growth inhibition (SRB or Sysmex cell counting); assay type: cell-based; settings: SRB or CC assay
Tubulin = assay: Inhibition of tubulin polymerisation; assay type: biochemical; settings: tubulin concentration 10 μM; extent of assembly after 20 min incubation at 30° C.; read-out: Inhib. Tubulin polymerisation IC50
[1] = tested on: Human umbilical vein endothelial cells; assay: Proliferation Assay - activated endothelium (MTT); assay type: cell-based; settings: HUVEC, range within which the IC50 value falls, 48 hrs culture, read-out: Inhib activated HUVECs IC50
Procedure: Proliferation Assay—activated endothelium: Human umbilical vein endothelial cells (CC-2519, Clonetics) were plated at 2500 cells/well in EGM2 (CC-3162, Clonetics) in a 96 well plate in triplicate. Cells were cultured overnight at 37° C. 5% CO2. Medium was subsequently replaced with fresh medium including the compound or negative control. Cells were cultured for a period of 48 hrs. An MTT assay was performed to measure changes in cell numbers. Briefly, 20 μl of MTT reagent was added to cells containing 100 μl of EGM2 and incubated at 37° C. for 2 hours. Absorbance was measured at 492 nm.

MDA-MB-231 = MDA-MB-231 growth inhibition (footnote b); assay type: cell-based; settings: Homo sapiens; entries 59-60: cell line MDA-MB-231; range within which the IC50 value falls; read-out: cancer cell line IC50 (MDA-MB-231)
[2] = Homo sapiens, MCF7, concentration required to inhibit net cell growth by 50%
[3] = concentration required to inhibit net cell growth by 50%

SMILES | effect on MDA-MB-231 tumour growth (MDA-MB-231 tumour) | IC50 (MCF-7, cancer cell line; [2]) [nM] | IC50 (Tubulin) [nM] | IC50 (MCF-7, cancer cell line; [3]) [nM] | IC50 [1] [nM] | IC50 (MDA-MB-231) [nM]
COc1ccc(/C=C\c2cc(OC)c(OC)c(OC)c2)cc1OP(=O)([O-])[O-].[Na+].[Na+] [CA4-P, combretastatin A4 disodium phosphate, reference compound] | effectively inhibited | – | – | – | – | –
COc1ccc(-c2oc3c(O)c(OC)ccc3c2C(=O)c2cc(OC)c(OC)c(OC)c2)cc1 [Entry 4, reference compound] | – | 1 to 2 | 1500 ± 400 | – | – | –
COc1ccc(-c2oc3c(O)c(OC)ccc3c2C(=O)c2cc(OC)c(OC)c(OC)c2)cc1O [Entry 5, reference compound] | – | 3.9 | < 4000 | 4.1 | – | –
COc1ccc2c(C(=O)c3cc(OC)c(OC)c(OC)c3)coc2c1 [Entry 6, reference compound] | – | 60 | 1600 ± 200 | 50 | – | –
COc1ccc2c(C(=O)c3cc(OC)c(OC)c(OC)c3)c(-c3ccc(OC)nc3)oc2c1 [Entry 11, 2-(6-Methoxy-pyridin-3-yl)-3-(3,4,5-trimethoxybenzoyl)-6-methoxy-benzofuran] | – | 70 | < 4000 | 72 | 10 to 100 | –
COc1ccc2c(C(=O)c3cc(OC)c(OC)c(OC)c3)c(-c3cnn(C)c3)oc2c1 [Entry 12, 6-Methoxy-2-(1-methyl-1H-pyrazol-4-yl)-3-(3,4,5-trimethoxybenzoyl)benzo[b]furan] | – | 3.9 | 1200 ± 40 | 4 | 1 to 10 | –
COc1cc(C(=O)c2c(-c3cnn(C)c3)oc3c(O)c(OC)ccc23)cc(OC)c1OC [Entry 14, 2-(4-N-Methylpyrazolyl)-3-(3,4,5-trimethoxybenzoyl)-6-methoxy-7-hydroxy-benzofuran] | – | – | 1300 ± 70 | – | 0.1 to 1 | –
COc1cc(C(=O)c2c(-c3cnn(C)c3)oc3c(N)c(OC)ccc23)cc(OC)c1OC [Entry 21, 7-Amino-6-methoxy-2-(1-methyl-1H-pyrazol-4-yl)-3-(3,4,5-trimethoxybenzoyl)benzo[b]furan] | – | < 1 | 1500 ± 100 | 1.2 | 1 to 10 | –
COc1cc(C(=O)c2c(-c3cnn(C)c3)oc3c(OP(=O)([O-])[O-])c(OC)ccc23)cc(OC)c1OC.[Na+].[Na+] [Entry 23, 2-(4-N-methylpyrazolyl)-3-(3,4,5-trimethoxybenzoyl)-6-methoxy-7-O-disodiumphosphate-benzofuran] | effectively inhibited | – | – | – | – | –
COc1cc(C(=O)c2c(-c3ccco3)oc3c(O)c(OC)ccc23)cc(OC)c1OC [Entry 36, 2-(2-furanyl)-7-hydroxy-6-methoxy-3-(3,4,5-trimethoxybenzoyl)benzo[b]furan] | – | – | 8700 ± 800 | – | 1 to 10 | –
COc1cc(C(=O)c2c(-c3nccs3)oc3c(O)c(OC)ccc23)cc(OC)c1OC [Entry 44, 7-Hydroxy-2-(2-thiazolyl)-3-(3,4,5-trimethoxybenzoyl)-6-methoxy-benzo[b]furan] | – | 0.37 | 2200 ± 400 | 0.32 | 0.1 to 1 | –
COc1ccc2c(C(=O)c3cc(OC)c(OC)c(OC)c3)c(N3CCN(C)CC3)oc2c1 [Entry 46, 2-(4-N-Methylpiperazino)-3-(3,4,5-trimethoxybenzoyl)-6-methoxy-benzo[b]furan] | – | 200 | – | 230 | 100 to 1000 | –
COc1ccc2c(C(=O)c3cc(OC)c(OC)c(OC)c3)c(-c3ccco3)oc2c1 [Entry 52, 2-(2-Furyl)-6-methoxy-3-(3,4,5-trimethoxybenzoyl)benzo[b]furan] | – | 6.9 | – | 7.9 | 1 to 10 | –
COc1cc(C(=O)c2c(-c3cnn(CC(N)=O)c3)oc3c(F)c(OC)ccc23)cc(OC)c1OC [Entry 53, 2-{4-[7-Fluoro-6-methoxy-3-(3,4,5-trimethoxybenzoyl)benzofuran-2-yl]-1H-pyrazol-1-yl}acetamide] | – | 7.8 | – | 8.1 | 0.1 to 1 | –
COc1cc(Sc2c(-c3cnn(C)c3)oc3c(N)c(OC)ccc23)cc(OC)c1OC [Entry 54, 7-Amino-6-methoxy-2-(1-methyl-1H-pyrazol-4-yl)-3-(3,4,5-trimethoxyphenylthio)benzo[b]furan] | – | 0.1 to 1 | – | – | 1 to 10 | –
COc1ccc2c(/C(=N/O)c3cc(OC)c(OC)c(OC)c3)c(-c3cnn(C)c3)oc2c1 [Entry 55, (E/Z)-6-methoxy-2-(1-methyl-1H-pyrazol-4-yl)-3-(3,4,5-trimethoxybenzoyl)benzo[b]furan oxime] | – | 100 to 1000 | – | – | 100 to 1000 | –
COc1ccc2c(/C(=N/Nc3ccc([N+](=O)[O-])cc3[N+](=O)[O-])c3cc(OC)c(OC)c(OC)c3)c(-c3cnn(C)c3)oc2c1 [Entry 56, (E/Z)-6-Methoxy-2-(1-methyl-1H-pyrazol-4-yl)-3-(3,4,5-trimethoxybenzoyl)benzo[b]furan 2,4-dinitrophenylhydrazone] | – | > 1000 | – | – | 100 to 1000 | –
COc1cc(C(=O)c2c(-c3nn[nH]n3)oc3c(O)c(OC)ccc23)cc(OC)c1OC [Entry 57, 7-Hydoxy-6-methoxy-2-(2H-tetrazol-5-yl)-3-(3,4,5-trimethoxybenzoyl)-benzo[b]furan] | – | 10 to 100 | – | – | 10 to 100 | –
COc1cc(C(=O)c2c(-c3c[nH]nn3)oc3c(O)c(OC)ccc23)cc(OC)c1OC [Entry 58, 17-Hydroxy-6-methoxy-2-(2H-[1,2,3]triazol-4-yl)-3-(3,4,5-trimethoxybenzoyl)benzo[b]furan] | – | 1 to 10 | – | – | 1 to 10 | –
COc1cc(C(=O)c2c(-c3cncn3C)oc3c(O)c(OC)ccc23)cc(OC)c1OC [Entry 59, 7-Hydroxy-6-methoxy-2-(3-methyl-3H-imidazol-4-yl)-3-(3,4,5-trimethoxybenzoyl)-benzo[b]furan] | – | – | – | – | 1 to 10 | 1 to 10
